The structures appear in SMILES notation. “Also recorded” adds a separate entry of the source.

The test system of data set [1] is cytokines and chemokines in treated skin. Nature of the data set: Cytokine/chemokine profile of treated skin lysates (U-PLEX). The note with it: for expression of inflammatory cytokine/chemokine panel in treated skin (in words): daily topical 2% PALA, 5% IMQ or 5% 5-FU, 7 days, vs vehicle; for IL-17C, Mean (SEM) / IL-17A, Mean (SEM) / GM-CSF, Mean (SEM) / IL-6, Mean (SEM) / KC, Mean (SEM) / RANTES, Mean (SEM): treated skin lysate, day 7, 2% PALA, 5% IMQ, 5% 5-FU, n = 5/group; for IL-17C, Mean (SEM): vehicle 0.5 (0.03); for IL-17A, Mean (SEM): vehicle 0.6 (0.1); for GM-CSF, Mean (SEM): vehicle 0.8 (0.1); for IL-6, Mean (SEM): vehicle 25.4 (3.2); for KC, Mean (SEM): vehicle 26.3 (6.4); for RANTES, Mean (SEM): vehicle 43.7 (3.2).
Procedure: The topical formulations of 2% PALA/50% acetone/10% glycerol, 5% imiquimod (IMQ), 5% 5-FU (5-FU), vehicle (50% acetone/10% glycerol) control, and Aquaphor were applied (~0.05 g/mouse) daily to the dorsal skin of SKH1-Elite female mice (8 weeks of age; n=5/group) for 7 days. […] Mice were monitored daily for weight change, skin appearance, and signs of distress.
Skin protein lysates were made by homogenizing frozen tissue with a pestle and scissors in RIPA buffer (50 mM Tris, pH8, 150 mM NaCl, 0.5% sodium deoxycholate, 1% NP-40, 0.1% sodium dodecyl sulfate, lx Pierce protease inhibitor cocktail (A32965, ThermoFisher)). Cytokines and chemokines were quantified from 25 μg of lysate using a custom 10-plex U-PLEX panel (K15069L-2; Meso Scale Discovery) that included: GM-CSF, KC/CXCL1, IFNα, IFNβ, IFNγ, IL-10, IL-6, IL-12p70, IL-17A, IL-17C, IL-17F, IP-10/CXCL10, MCP-1/CCL2, RANTES/CCL5, and TNFα. The MESO SECTOR S 600 plate reader (ICOAA-0; Meso Scale Discovery) was used to collect the U-Plex data and data was analyzed using MSD Discovery Workbench 4.0 software.

Data set [2] can be described thus: Skin irritation testing, daily topical application for 7 days. Conditions: for skin histology on day 7 / spleen weight on day 7 / skin irritation apparent: daily topical 2% PALA, 5% IMQ or 5% 5-FU; for skin irritation apparent / weight change: naive mice; for weight change: daily topical 5% IMQ or 5% 5-FU, in contrast to vehicle and 2% PALA.
Procedure: The topical formulations of 2% PALA/50% acetone/10% glycerol, 5% imiquimod (IMQ), 5% 5-FU (5-FU), vehicle (50% acetone/10% glycerol) control, and Aquaphor were applied (~0.05 g/mouse) daily to the dorsal skin of SKH1-Elite female mice (8 weeks of age; n=5/group) for 7 days. […] Mice were monitored daily for weight change, skin appearance, and signs of distress. […] At harvest, spleen weights and colon lengths were measured.
Data set [3] can be described thus: Toxicity markers in UVB-tumor-bearing mice under topical treatment (weight, SAA, colon length, fecal LCN2). The note with it: 5% (w/w) 5-fluorouracil, daily topical.
Procedure: Serum amyloid A levels were measured in plasma samples using the Mouse SAA ELISA kit (E-90SAA, Immunology Consultants Laboratory, Inc.) according to manufacturer's instructions. Lipocalin-2 (LCN2) was quantified from pre-weighed stool samples homogenized in 0.5 mL PBS using the Mouse Lipocalin-2/NGAL DuoSet ELISA (DY1857) and DuoSet Ancillary Reagent Kit 2 (DY008, R&D Systems).
Data set [4] deals with UVB-induced NMSC (AK lesions and SCC tumors). Put plainly: UVB-induced NMSC mouse model: tumor number, area, growth phenotype and grade. The note with it: 2% PALA or 5% IMQ, daily, 4 weeks.

For `O=c1[nH]cc(F)c(=O)[nH]1` [Formulation 5-FU, fluorouracil], in data set [1], the “expression of inflammatory cytokine/chemokine panel in treated skin (in words)” value was “increased expression of IL-6, IL-17C, KC, and GM-CSF”; the “IL-17C, Mean (SEM)” value is given as 1.4 (0.1); the “IL-17A, Mean (SEM)” value was 1.2 (0.4); the “GM-CSF, Mean (SEM)” value is 2.6 (0.2). Also, in data set [1], the “IL-6, Mean (SEM)” value is given as 268.8 (104.8); the “KC, Mean (SEM)” value is recorded as 114.5 (16.4); the “RANTES, Mean (SEM)” value is 17.7 (5.0). Further, in data set [2], the “skin histology on day 7” value is listed as “epithelial erosion”, the “spleen weight on day 7” value is reported as “significant decreases in spleen weight”, the “skin irritation apparent” value turned out to be 5 days and the weight change entry is “significant weight loss”. The “early termination of animals at the request of veterinary staff” value in data set [3] is “terminated after 2.5 weeks of treatment”.

Consider `CC(C)Cn1cnc2c(N)nc3ccccc3c21` [IMQ, imiquimod], for which, in data set [1], the “expression of inflammatory cytokine/chemokine panel in treated skin (in words)” value is “upregulation of IL-17 family cytokines; also recorded: cutaneous levels of RANTES and GM-CSF were elevated”; the “IL-17C, Mean (SEM)” value is on record as 1.0 (0.04); the “IL-17A, Mean (SEM)” value was 1.6 (0.1); the “GM-CSF, Mean (SEM)” value was 2.5 (0.7). Also, in data set [1], the “IL-6, Mean (SEM)” value is 61.3 (10.0); the “KC, Mean (SEM)” value is reported as 28.6 (5.9); the “RANTES, Mean (SEM)” value is on record as 141.0 (36.1). In data set [2], the “skin histology on day 7” value is on record as “overt thickening of the epidermis”, the “spleen weight on day 7” value is “splenomegaly”, the “skin irritation apparent” value amounted to 2 days and the weight change result is “significant weight loss”. Besides, the “tumor levels of interleukin-1β” value in data set [4] is listed as “elevated”.

The values above are taken from patent US20260240879A1, “TOPICAL PALA THERAPY FOR CANCER” (priority 2023, published 2026).
